Source: publication PMC2672171, “In Vivo Delta Opioid Receptor Internalization Controls Behavioral Effects of Agonists” (PLoS ONE, 2009)

What was measured:
[1] = target: T1, DOR-eGFP (delta opioid receptor-eGFP) (Mus musculus, UniProt P32300); experiment: […]GTPgammaS binding, whole brain membranes; type: biochemical; conditions: agonist; 30 µM GDP, 0.1 nM [35S]GTPgammaS, 3 mM MgCl2, 100 mM NaCl, pH 7.4, 1 h, 25 °C; read-out: G protein coupling ([^35S]GTPγS binding) / EC50 (nM) / Striatum / E1/2 (min)
T1 construct: gene Oprd1; Full-length mouse delta receptor with C-terminal eGFP, knocked in at the native gene (exon 3, 5' of the stop codon); whole brain membranes of knock-in mice

[2] = target: T1, DOR-eGFP (delta opioid receptor-eGFP); experiment: [3H]naltrindole competition binding, whole brain membranes; conditions: 1 nM [3H]naltrindole, 1 h, 25 °C; read-out: Affinity (Competition Binding) / Ki (nM) / Concentration
From the text: [3H]naltrindole competition binding, whole brain membranes on DOR-eGFP (delta opioid receptor-eGFP)

T1 sequence (P32300 whole entry): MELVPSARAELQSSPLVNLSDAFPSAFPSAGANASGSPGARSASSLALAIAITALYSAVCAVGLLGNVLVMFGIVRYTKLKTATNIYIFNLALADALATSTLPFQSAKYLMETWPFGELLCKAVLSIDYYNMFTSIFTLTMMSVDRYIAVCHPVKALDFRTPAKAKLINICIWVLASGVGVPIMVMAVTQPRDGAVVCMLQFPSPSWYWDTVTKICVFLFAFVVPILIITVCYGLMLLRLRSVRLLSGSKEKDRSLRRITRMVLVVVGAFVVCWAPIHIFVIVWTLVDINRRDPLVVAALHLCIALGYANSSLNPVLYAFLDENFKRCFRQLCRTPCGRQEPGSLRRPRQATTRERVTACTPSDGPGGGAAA

CCN(CC)C(=O)c1ccc(C(=C2CCNCC2)c2ccccc2)cc1 [ARM390, N,N-diethyl-4-(phenyl-piperidin-4-ylidenemethyl)-benzamide]
EC50 [1]: 169 ± 9.5 nM | Ki [2]: 2.3 ± 0.3 nM
